Experimental findings from patent US20100129790A1, “Method for Determining Phospholipidosis” (TAKEDA PHARMACEUTICAL LIMITED, priority 2005, published 2010) are described below.

Series [1] relates to blood. The experiment in a line: GeneChip analysis of blood (Rat Expression Array 230A), 3-day administration. The settings on record: rat blood 24 hr after 3 consecutive days of oral administration, pooled, 3 rats per group; dose per compound in table. Type of series: in vivo. The protocol: At 24 hr after completion of the oral administration for 3 consecutive days in Example 1, the blood was collected from the compound administration group and the control (non-administration) group (3 rats per group), which was pooled and subjected to GeneChip analysis.
(§1) After collection using PAXgene Blood RNA Tube (PreAnalytiX), the blood was stood for 2 hr or more, and cryopreserved at −80° C. Total RNA was extracted using a PAXgene Blood RNA Kit (PreAnalytiX). A sample for GeneChip analysis was prepared and analyzed according to the protocol provided by Affymetrix Inc. cDNA synthesis reaction was carried out using a SuperScript Choice system (Invitrogen), then biotin-labeled cRNA synthesis reaction was carried out using Enzo BioArray HighYield RNA Transcript Labeling Kit (Affymetrix), after which cRNA was fragmented and a labeled sample was prepared. The labeled sample was hybridized to Rat Expression Array 230A (RAE230A, Affymetrix), the array was stained, washed and scanned by GeneChip system (Affymetrix), and the following three image data were obtained from one sheet of array.
1. data of staining by a method omitting fluorescence amplification reaction by antibody 2. data of staining by the method described in a manual for once performing fluorescence amplification reaction by antibody 3. data of staining by a method for twice performing fluorescence amplification reaction by antibody
(§2) From the image data, measurement value (Signal), numerical data such as Signal Log Ratio and the like and determination data such as Detection, Change and the like were obtained using MicroarraySuite5.0 (parameter: Default value). Fold Change was calculated from Signal Log Ratio of the image data 2 using the conversion equation of Fold Change=2^Signal Log Ratio.
(§3) (*In GeneChip analysis using RAE230A, 11 sites per one measurement target sequence are measured, and the measurement results at 11 sites are combined to give one numerical value and determination data. RAE230A contains 15924 combinations of 11 site measurement sets, and each measurement set is referred to as a probe set.)
(§4) A probe set wherein two or more of the above-mentioned three image data satisfy the following three conditions was taken as a variation probe set.
(§5) 1. A probe set judged as Increase or Decrease by MicroarraySuite5.0 2. A probe set whose higher measurement value (Signal) was judged as Presence by MicroarraySuite5.0 3.

Series [2] has as its system Crj:CD(SD)IGS rats. The note with it: rat, in vivo. The protocol: After completion of the administration, in all animals, livers, kidneys, spleens, lungs and mesenteric lymph nodes were sampled, these sampled tissues were examined for histopathological changes by conventional methods of optical microscopy and electron microscopy. In addition, a blood smear sample (Giemsa stain sample) was prepared, and the vacuolated lymphocyte ratio of the peripheral blood was measured with observation under a microscope.

Series [3] has as its system blood. The series can be described thus: GeneChip analysis of blood (Rat Expression Array 230A), 7-day administration. Type of series: in vivo. The note with it: rat blood 24 hr after 7 consecutive days of oral administration, pooled, 4 rats per group; dose per compound in table. The protocol:
as §1, §2, §3, §4, §5
At 24 hr after completion of the oral administration for 7 consecutive days in Example 3, the blood was collected from the compound administration group and the control (non-administration) group (4 rats per group), which was pooled and subjected to GeneChip analysis in the same manner as in Example 2.

Series [4] relates to Crj:CD(SD)IGS rats. The settings on record: rat, in vivo. The source holds these as a separate data set.

Where two headings read alike, the source gives them in different places.

As for `CCCCc1oc2ccccc2c1C(=O)c1cc(I)c(OCCN(CC)CC)c(I)c1` [Amiodarone, amiodarone], in the series on blood [1], the “Number of expression variation probe sets, Decreased expression” value (shortened to “Number … Decreased expression”) is recorded as 282 and the “Number of expression variation probe sets, Increased expression” value (“Number … Increased expression” below) was 613. In the series with Crj:CD(SD)IGS rats [2], the “Histopathological findings (PLsis) Kidney” value was “−”, the “Histopathological findings (PLsis) Liver” value is on record as “−”, the “Histopathological findings (PLsis) Lung” value is reported as “++” and the “Histopathological findings (PLsis) Lymph node” value is recorded as “++”. The “Histopathological findings (PLsis) Spleen” value in the series with Crj:CD(SD)IGS rats [2] was “−”. Moreover, in the series on blood [3], the “Number … Decreased expression” value is on record as 457 and the “Number … Increased expression” value came to 515. For the same compound, in the series on Crj:CD(SD)IGS rats [4], the “Histopathological findings (PLsis) Liver” value is “−”, the “Histopathological findings (PLsis) Lung” value was “+”, the “Histopathological findings (PLsis) Lymph node” value was “+” and the “Histopathological findings (PLsis) Others” value is recorded as “−”. The “Histopathological findings (PLsis) Spleen” value in the series with Crj:CD(SD)IGS rats [4] is reported as “+”.
For `CCN(CC)CCCC(C)Nc1ccnc2cc(Cl)ccc12` (stereo not drawn) [Chloroquine, chloroquine], in the series with blood [1], the “Number … Decreased expression” value was found to be 318 and the “Number … Increased expression” value is recorded as 382. Also, in the series on Crj:CD(SD)IGS rats [2], the “Histopathological findings (PLsis) Kidney” value was “−”, the “Histopathological findings (PLsis) Liver” value is “+”, the “Histopathological findings (PLsis) Lung” value is listed as “−” and the “Histopathological findings (PLsis) Lymph node” value is recorded as “−”. In addition, the “Histopathological findings (PLsis) Spleen” value with Crj:CD(SD)IGS rats [2] is recorded as “+”. In addition, in the series on blood [3], the “Number … Decreased expression” value is listed as 179 and the “Number … Increased expression” value is reported as 310. Besides, in the series with Crj:CD(SD)IGS rats [4], the “Histopathological findings (PLsis) Liver” value was “−”, the “Histopathological findings (PLsis) Lung” value is “−”, the “Histopathological findings (PLsis) Lymph node” value was “+” and the “Histopathological findings (PLsis) Others” value was “−”. In addition, in the series with Crj:CD(SD)IGS rats [4], the “Histopathological findings (PLsis) Spleen” value was “+”.
Turning to `CNCCC(Oc1ccc(C(F)(F)F)cc1)c1ccccc1` (stereo not drawn) [Fluoxetine, fluoxetine], in the series on blood [1], the “Number … Decreased expression” value stood at 391 and the “Number … Increased expression” value amounted to 372. Moreover, in the series with Crj:CD(SD)IGS rats [4], the “Histopathological findings (PLsis) Liver” value was “+”, the “Histopathological findings (PLsis) Lung” value was “+”, the “Histopathological findings (PLsis) Lymph node” value was “+” and the “Histopathological findings (PLsis) Others” value is “brain”. Moreover, the “Histopathological findings (PLsis) Spleen” value with Crj:CD(SD)IGS rats [4] is “−”.
`CN(C)CCCN1c2ccccc2CCc2ccccc21` [Imipramine, imipramine]: in the series on Crj:CD(SD)IGS rats [2], the “Histopathological findings (PLsis) Kidney” value is on record as “−”, the “Histopathological findings (PLsis) Liver” value was “++”, the “Histopathological findings (PLsis) Lung” value is “+” and the “Histopathological findings (PLsis) Lymph node” value is “−”. For the same compound, the “Histopathological findings (PLsis) Spleen” value in the series with Crj:CD(SD)IGS rats [2] is given as “−”. Further, in the series on blood [3], the “Number … Decreased expression” value is 320 and the “Number … Increased expression” value turned out to be 123.
Take `C1CCC(C(CC2CCCCN2)C2CCCCC2)CC1` (stereo not drawn) [Perhexiline, perhexiline]: in the series on blood [1], the “Number … Decreased expression” value stood at 179 and the “Number … Increased expression” value is on record as 310. Moreover, in the series with Crj:CD(SD)IGS rats [2], the “Histopathological findings (PLsis) Kidney” value is recorded as “−”, the “Histopathological findings (PLsis) Liver” value is listed as “−”, the “Histopathological findings (PLsis) Lung” value was “+” and the “Histopathological findings (PLsis) Lymph node” value was “+”. Besides, the “Histopathological findings (PLsis) Spleen” value in the series on Crj:CD(SD)IGS rats [2] is “−”. In the series with blood [3], the “Number … Decreased expression” value came out at 83 and the “Number … Increased expression” value is 49. Also, in the series with Crj:CD(SD)IGS rats [4], the “Histopathological findings (PLsis) Liver” value is “−”, the “Histopathological findings (PLsis) Lung” value was “+”, the “Histopathological findings (PLsis) Lymph node” value is “+” and the “Histopathological findings (PLsis) Others” value is reported as “−”. Also, the “Histopathological findings (PLsis) Spleen” value in the series on Crj:CD(SD)IGS rats [4] is “+”.
As for `CCN(CC)CCCC(C)Nc1c2ccc(Cl)cc2nc2ccc(OC)cc12` (stereo not drawn) [Quinacrine, quinacrine], in the series with blood [1], the “Number … Decreased expression” value is reported as 392 and the “Number … Increased expression” value is reported as 240. In addition, in the series with Crj:CD(SD)IGS rats [2], the “Histopathological findings (PLsis) Kidney” value was “+”, the “Histopathological findings (PLsis) Liver” value was “++”, the “Histopathological findings (PLsis) Lung” value was “+” and the “Histopathological findings (PLsis) Lymph node” value is given as “−”. The “Histopathological findings (PLsis) Spleen” value in the series with Crj:CD(SD)IGS rats [2] was “+”. In the series on blood [3], the “Number … Decreased expression” value worked out at 103 and the “Number … Increased expression” value worked out at 258. Further, in the series with Crj:CD(SD)IGS rats [4], the “Histopathological findings (PLsis) Liver” value is “+”, the “Histopathological findings (PLsis) Lung” value is recorded as “+”, the “Histopathological findings (PLsis) Lymph node” value was “+” and the “Histopathological findings (PLsis) Others” value is listed as “−”. Also, the “Histopathological findings (PLsis) Spleen” value in the series with Crj:CD(SD)IGS rats [4] is on record as “−”.
As to `CC/C(=C(\c1ccccc1)c1ccc(OCCN(C)C)cc1)c1ccccc1` [Tamoxifen, tamoxifen], in the series with blood [1], the “Number … Decreased expression” value stood at 94 and the “Number … Increased expression” value came to 258. For the same compound, in the series with Crj:CD(SD)IGS rats [2], the “Histopathological findings (PLsis) Kidney” value is recorded as “−”, the “Histopathological findings (PLsis) Liver” value is given as “−”, the “Histopathological findings (PLsis) Lung” value is “+” and the “Histopathological findings (PLsis) Lymph node” value is “++”. Also, the “Histopathological findings (PLsis) Spleen” value with Crj:CD(SD)IGS rats [2] is listed as “−”. In the series on blood [3], the “Number … Decreased expression” value came out at 368 and the “Number … Increased expression” value came to 546. Also, in the series on Crj:CD(SD)IGS rats [4], the “Histopathological findings (PLsis) Liver” value is reported as “+”, the “Histopathological findings (PLsis) Lung” value was “+”, the “Histopathological findings (PLsis) Lymph node” value is “+” and the “Histopathological findings (PLsis) Others” value is on record as “−”. Besides, the “Histopathological findings (PLsis) Spleen” value with Crj:CD(SD)IGS rats [4] is “−”.
